According to patent publication US10709745B2, “Tropic cell based virotherapy for the treatment of cancer” (priority 2013, dated 2020):

How the values were obtained:
HB1.F3-CD = assay: TMZ IC50 with simultaneous XRT; format: cell-based; conditions: Homo sapiens; treated with XRT (2 Gy) simultaneously
Description: For all studies, the cells and mice received XRT in accordance with the University of Chicago's radiation safety guidelines and protocols. All cells received a single dose of 2 Gy XRT. For animal studies, 10 Gy fractioned dose radiotherapy (2 Gy for 5 consecutive days) was used. The animals were irradiated with a lead cover shielding their entire body, with only their heads exposed. […] For in vivo studies, the mice received 2.5, 5, 10, or 30 mg/kg TMZ via intraperitoneal injection.
NSCs have an inherent pathotropism toward glioma, which is critical for their utility as cell carriers. Therefore, it is critical that such intrinsic molecular properties and phenotypes of NSCs are maintained during radio-chemotherapy (XRT-TMZ). […] Oct4, a marker of self-renewal for undifferentiated cells, was expressed in 87.6±1.1% of the loaded NSCs. […] The percentage of Oct4 positive cells decreased to 81±2% (*, p<0.05), whereas the MFI was not reduced. […] Because of the high priority of safety when working with the undifferentiated v-myc immortalized HB1.F3-CD stem cell line (Kim et al. 2008), an in vivo safety monitoring experiment was performed to test the effect of XRT-TMZ on loaded HB1.F3-CD cellular transformation. CRAd-S-pk7-loaded NSCs were implanted in the brains of nude mice with no tumor burden. […]

GBM39 = assay: Glioma cell viability (MTT) under XRT-TMZ with or without CRAd-S-pk7; format: cell-based; conditions: Homo sapiens, treated with XRT (2 Gy) simultaneously
Description: FIGS. 44A and 44B show the optimization of combination therapy in vitro according to one embodiment. (FIG. 44A): Cytotoxicity of U251 and U87 glioma cell lines and GBM39 patient-derived cell line treated with Rx-OV or OV-Rx. Left: The percentage of viability of glioma cells measured by 3-(4,5-dimethylthiazol-2-yl)-2,5-diphenyltetrazolium bromide 96 hours after treatment. Right: Representative light microscope pictures of U87 glioma cell viability (magnification, ×10). (FIG. 44B): Percentage of apoptotic GBM43 cells at 48 hours after treatment with Rx-OV or OV-Rx treatment protocols as measured by the expression of active caspase-3-positive tumor cells by FACS (bottom). […]
A green fluorescent protein (GFP) expressing HB1.F3-CD cell line was generated as described elsewhere (Ahmed et al. 2011a). […] Following lysate preparation, the mean fluorescence intensity (MFI) was estimated for each group of cocultured cells using the GloMax 20/20 Luminometer (Promega). […] U251, U87, and GBM39 cell viability was determined using 3-(4,5-dimethylthiazol-2-yl)-2,5-diphenyltetrazolium bromide (MTT) cell proliferation kit (Roche Diagnostics, Mannheim, Germany, http://www.roche-applied-science.com). The viability was subsequently determined by MTT as described by the manufacturer's protocol. Cell viability was expressed as the percentage of cells alive compared with the dimethyl sulfoxide-treated control. […]

Cn1nnc2c(C(N)=O)ncn2c1=O [TMZ, temozolomide]
IC50 (HB1.F3-CD): 15 µM | IC50 (GBM39): 50 µM
